From US5456923A, “Method of manufacturing solid dispersion” (priority 1991, dated 1995)
In brackets after ≈: the same amount, converted by molar mass. Counter-ions that a name gives are not always drawn.

Experiment: physchem
Conditions: jp test solution 2
Experimental: Test method: Saturation dissolution method
Test conditions: Constanttemperature bath (25° C.)
Ultracentrifugation: 40000 rpm × 1 hr; the supernatant analyzed by

| solubility at 24 h | SMILES |
| --- | --- |
| 36.5 µg/mL (≈ 89.4 µM) | COC(=O)C1=C(C)NC(C)=C(P2(=O)OCCCO2)C1c1ccccc1[N+](=O)[O-] (centres unmarked) [Compound A, methyl 2,6-dimethyl-4-(2-nitrophenyl)-5-(2-oxo-1,3,2-dioxaphosphorinan-2-yl)-1,4-dihydropyridine-3-carboxylate] |
| 8.5 µg/mL | COC(=O)C1=C(C)NC(C)=C(C(=O)OCCN(C)Cc2ccccc2)C1c1cccc([N+](=O)[O-])c1 (centres unmarked) [nicardipine hydrochloride] |
